Measured values taken from ChEMBL document CHEMBL1201862, “PubChem BioAssay data set” (2004).
Active and inactive are the calls of the source.

What was measured:
[1] = molecular target: T1, Heat shock factor protein 1 (Mus musculus, UniProt P38532); experiment: inhibition of MG132-induced HSE-luciferase signal, confirmation, cell-based, NIH3T3, luminescence, dose retest (AID 2382); format: functional;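 note: NIH3T3 fibroblasts with HSF1-driven luciferase reporter stressed by proteasome inhibitor MG132; luminescence from HSF1-driven luciferase expression after 8 hours of MG132 stress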
T1 sequence (P38532 whole entry): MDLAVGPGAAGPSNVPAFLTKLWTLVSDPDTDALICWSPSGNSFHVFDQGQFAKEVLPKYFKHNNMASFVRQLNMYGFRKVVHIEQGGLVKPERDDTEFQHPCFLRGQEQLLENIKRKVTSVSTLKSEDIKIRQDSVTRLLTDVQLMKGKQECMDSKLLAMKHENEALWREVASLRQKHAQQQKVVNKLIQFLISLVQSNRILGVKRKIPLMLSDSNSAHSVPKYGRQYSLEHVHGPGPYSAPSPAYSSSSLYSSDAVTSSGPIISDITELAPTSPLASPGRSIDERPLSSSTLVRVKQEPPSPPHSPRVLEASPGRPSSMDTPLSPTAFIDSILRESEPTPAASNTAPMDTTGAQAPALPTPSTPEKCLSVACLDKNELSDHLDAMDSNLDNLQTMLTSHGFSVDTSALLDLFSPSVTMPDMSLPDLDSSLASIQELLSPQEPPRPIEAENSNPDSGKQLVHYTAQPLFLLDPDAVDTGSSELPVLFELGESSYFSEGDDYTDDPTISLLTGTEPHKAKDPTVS

[2] = molecular target: Cytochrome P450 2D6 (Homo sapiens, UniProt P10635);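 note: CYP2D6 member of a cytochrome P450 panel assay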
Cytochrome P450 2D6, sequence (P10635 whole entry): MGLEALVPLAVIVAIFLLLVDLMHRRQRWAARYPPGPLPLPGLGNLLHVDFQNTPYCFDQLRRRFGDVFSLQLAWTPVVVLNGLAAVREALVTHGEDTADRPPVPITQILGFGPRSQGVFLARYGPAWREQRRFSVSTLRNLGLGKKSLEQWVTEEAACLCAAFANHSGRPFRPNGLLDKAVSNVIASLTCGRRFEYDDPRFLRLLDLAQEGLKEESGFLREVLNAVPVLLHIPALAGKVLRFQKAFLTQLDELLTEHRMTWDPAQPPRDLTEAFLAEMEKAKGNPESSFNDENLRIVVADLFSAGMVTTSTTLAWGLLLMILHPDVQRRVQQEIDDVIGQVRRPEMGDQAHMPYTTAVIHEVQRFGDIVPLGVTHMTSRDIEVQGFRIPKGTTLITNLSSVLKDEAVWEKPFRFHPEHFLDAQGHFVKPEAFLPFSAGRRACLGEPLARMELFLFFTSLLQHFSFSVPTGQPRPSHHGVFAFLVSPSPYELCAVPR

[3] = Luminescence Cell-Based Dose Confirmation HTS to Identify Inhibitors of Platelet Dense Granule Release. [Related pubchem assays: 1663 (Primary HTS), 1678 (Summary of Project)]; format: functional
[4] = molecular target: T1, Heat shock factor protein 1; experiment: HSF1 potentiators in luciferase reporter cells, confirmation, cell-based, NIH3T3, luminescence, dose retest (AID 435004); format: functional;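 note: stress induced by proteasome inhibitor MG132 added 30 min after compound; luciferase reporter driven by HSF1 response element in NIH3T3 cells; actives raise luminescence as potentiators of the MG132 stress response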
[5] = molecular target: Luciferin 4-monooxygenase (Photinus pyralis, UniProt P08659); experiment: firefly luciferase enzyme inhibitors, dose response, biochemical, luminescence (AID 1891)
Luciferin 4-monooxygenase, sequence (P08659 whole entry): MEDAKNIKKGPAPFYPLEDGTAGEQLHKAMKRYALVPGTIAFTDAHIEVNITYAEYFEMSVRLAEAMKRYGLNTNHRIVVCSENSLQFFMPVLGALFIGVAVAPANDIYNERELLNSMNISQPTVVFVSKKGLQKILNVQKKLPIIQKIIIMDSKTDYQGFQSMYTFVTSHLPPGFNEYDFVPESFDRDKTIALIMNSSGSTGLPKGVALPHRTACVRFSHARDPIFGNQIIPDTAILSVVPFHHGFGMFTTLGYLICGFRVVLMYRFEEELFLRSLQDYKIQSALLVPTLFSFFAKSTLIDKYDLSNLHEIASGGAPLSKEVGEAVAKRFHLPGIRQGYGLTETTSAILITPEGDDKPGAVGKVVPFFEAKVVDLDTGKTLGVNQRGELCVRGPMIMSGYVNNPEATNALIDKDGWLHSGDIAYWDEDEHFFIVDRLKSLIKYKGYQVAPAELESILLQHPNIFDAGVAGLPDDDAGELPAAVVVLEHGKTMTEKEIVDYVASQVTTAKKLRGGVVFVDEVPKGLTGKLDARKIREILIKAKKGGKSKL

[6] = molecular target: T2, Cytochrome P450 1A2 (Homo sapiens, UniProt P05177);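 note: PubChem cytochrome P450 panel assay, CYP1A2 panel member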
T2 sequence (P05177 whole entry): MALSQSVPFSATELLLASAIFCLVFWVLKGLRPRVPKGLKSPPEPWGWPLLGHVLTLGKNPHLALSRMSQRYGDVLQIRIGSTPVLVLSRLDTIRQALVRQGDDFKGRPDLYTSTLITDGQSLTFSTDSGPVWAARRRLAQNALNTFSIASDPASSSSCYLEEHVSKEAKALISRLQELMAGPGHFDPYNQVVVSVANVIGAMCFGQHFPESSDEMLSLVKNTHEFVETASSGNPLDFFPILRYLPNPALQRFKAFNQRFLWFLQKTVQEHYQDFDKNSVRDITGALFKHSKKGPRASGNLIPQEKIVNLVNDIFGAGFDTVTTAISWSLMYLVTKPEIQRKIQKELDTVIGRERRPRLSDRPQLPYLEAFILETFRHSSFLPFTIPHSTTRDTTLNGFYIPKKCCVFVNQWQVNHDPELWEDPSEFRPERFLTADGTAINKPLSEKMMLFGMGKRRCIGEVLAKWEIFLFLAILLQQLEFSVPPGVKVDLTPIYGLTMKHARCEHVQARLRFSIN

[7] = cells; format: functional, cell-based
[8] = cells; format: functional, cell-based; remark: listed apart in the source
[9] = molecular target: Cytochrome P450 2C19 (Homo sapiens, UniProt P33261); experiment: Cytochrome panel assay with activity outcomes. Panel member name: p450-cyp2c19 Compounds with AC50 equal or less than 10 uM are considered active; format: functional; conditions: read-out: AC50
Cytochrome P450 2C19, sequence (P33261 whole entry): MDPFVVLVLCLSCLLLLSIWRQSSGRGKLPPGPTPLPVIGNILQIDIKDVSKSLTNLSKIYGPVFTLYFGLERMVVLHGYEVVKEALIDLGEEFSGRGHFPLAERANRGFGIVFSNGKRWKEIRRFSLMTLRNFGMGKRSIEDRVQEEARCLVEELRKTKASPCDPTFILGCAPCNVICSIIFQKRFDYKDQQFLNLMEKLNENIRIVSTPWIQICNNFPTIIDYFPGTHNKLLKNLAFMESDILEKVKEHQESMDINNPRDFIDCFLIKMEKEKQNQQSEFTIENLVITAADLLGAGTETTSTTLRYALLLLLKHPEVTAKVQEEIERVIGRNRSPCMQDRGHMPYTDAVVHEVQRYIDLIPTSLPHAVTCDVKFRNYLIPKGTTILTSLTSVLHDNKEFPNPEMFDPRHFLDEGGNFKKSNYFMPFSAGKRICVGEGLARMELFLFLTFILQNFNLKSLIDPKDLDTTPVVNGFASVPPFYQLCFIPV

[10] = inhibitors of SNCA 5'UTR-driven reporter translation, confirmation, H4 neuroglioma cells, luminescence (AID 1988); format: functional, cell-based
[11] = Luminescence Cell-Based Dose Response HTS to Identify Inhibitors of 5'UTR Stem-Loop Driven Prion Protein mRNA Translation in H4 Neuroglioblastoma Cells. [Related pubchem assays: 1827 (Project Summary), 1813 (Primary HTS)]; format: functional
[12] = inhibitors of firefly luciferase expression or activity, dose response, H4 neuroglioma cells, luminescence (AID 1990); format: functional, cell-based
[13] = Luminescence Cell-Based Dose Retest to Confirm Inhibitors of Cancer Stem Cells. [Related pubchem assays (depositor defined):AID2717, AID2721]; format: functional; conditions: Homo sapiens
[14] = molecular target: Cytochrome P450 2C9 (Homo sapiens, UniProt P11712)
Cytochrome P450 2C9, sequence (P11712 whole entry): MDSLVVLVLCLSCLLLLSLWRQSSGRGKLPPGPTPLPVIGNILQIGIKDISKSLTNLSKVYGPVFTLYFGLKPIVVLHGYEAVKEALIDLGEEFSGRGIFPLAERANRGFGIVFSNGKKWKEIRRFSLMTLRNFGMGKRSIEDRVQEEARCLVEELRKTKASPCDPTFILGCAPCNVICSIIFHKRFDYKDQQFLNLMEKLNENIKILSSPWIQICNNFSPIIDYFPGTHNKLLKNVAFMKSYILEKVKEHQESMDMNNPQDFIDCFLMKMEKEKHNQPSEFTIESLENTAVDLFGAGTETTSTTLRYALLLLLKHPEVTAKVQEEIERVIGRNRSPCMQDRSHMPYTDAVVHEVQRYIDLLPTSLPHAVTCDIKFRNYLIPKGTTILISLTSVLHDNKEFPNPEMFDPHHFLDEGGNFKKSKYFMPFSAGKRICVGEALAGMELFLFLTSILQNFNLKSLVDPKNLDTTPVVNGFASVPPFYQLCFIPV

[15] = molecular target: Cytochrome P450 3A4 (Homo sapiens, UniProt P08684);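 note: CYP3A4 tested as one member of a cytochrome P450 panel screen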
Cytochrome P450 3A4, sequence (P08684 whole entry): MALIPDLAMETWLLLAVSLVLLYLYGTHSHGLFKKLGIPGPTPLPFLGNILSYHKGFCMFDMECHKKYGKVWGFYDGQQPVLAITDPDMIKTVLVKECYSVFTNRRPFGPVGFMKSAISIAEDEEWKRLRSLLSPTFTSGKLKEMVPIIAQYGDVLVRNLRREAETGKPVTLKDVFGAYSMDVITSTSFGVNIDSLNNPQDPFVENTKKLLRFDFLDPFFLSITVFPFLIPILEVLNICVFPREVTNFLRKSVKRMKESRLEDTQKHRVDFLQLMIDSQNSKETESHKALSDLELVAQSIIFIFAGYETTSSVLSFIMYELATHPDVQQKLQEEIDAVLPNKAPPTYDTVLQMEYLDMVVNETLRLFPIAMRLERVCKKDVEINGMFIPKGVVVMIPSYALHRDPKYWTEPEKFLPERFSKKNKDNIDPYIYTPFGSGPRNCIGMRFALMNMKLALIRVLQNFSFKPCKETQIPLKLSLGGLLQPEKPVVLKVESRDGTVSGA

[16] = test system: INS1; experiment: beta cell apoptosis inhibitors, cytokine rescue, dose response, luminescence, retest (AID 449756); format: functional, cell-based; conditions: Rattus norvegicus, INS1;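 note: cell death triggered by IL-1 beta plus TNF-alpha plus IFN-gamma mixture; protective hits raise ATP signal compared with cytokine alone wells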

## Cc1ccc([N+](=O)[O-])cc1NC(=O)CSc1n[nH]c(-c2cccnc2)n1
[1]
  EC50: > 195 µM (not active)

## CN1CCN(c2nc(-c3cccc(C#N)c3)nc3ccccc23)CC1
[2]
  AC50: 12.6 µM (inconclusive)

## Cc1c(O)ccc(/C=N/Nc2ncccc2[N+](=O)[O-])c1O
[3]
  EC50: 1.12 µM (active)
[4]
  EC50: > 260 µM (inconclusive)
[5]
  EC50: 0.176 µM (active)

## COC(=O)[C@@]1(Cc2ccc(F)cc2)[C@H]2c3cc(C(=O)N4CCCC4)n(Cc4ccc(C)o4)c3C[C@H]2CN1C(=O)c1ccccc1
[2]
  AC50: 39.8 µM (inconclusive)
[6]
  AC50: 10 µM (inconclusive)

## CN(C)/C=N/C(=O)c1cn(-c2ccc(F)cc2)c(=O)c2ccccc12
[7]
  EC50: > 350 µM (not active)
[8]
  EC50: > 350 µM (not active)

## COc1ncc2nc(CCc3ccccc3)c(=O)n(Cc3cccs3)c2n1
[2]
  AC50: 12.6 µM (inconclusive)

## CC(C)(C)c1ccc(COC(=O)CNC(=O)CNC(=O)Cc2ccccc2)cc1
[9]
  AC50: 31.6 µM (inconclusive)

## Cc1cc(C)c(C(=O)N2CCCC(N3CCN(c4cccc(C(F)(F)F)c4)CC3)C2)o1 (centres undefined)
[7]
  EC50: > 350 µM (not active)
[8]
  EC50: > 350 µM (not active)

## COc1ccc(-n2c(-c3cccc(OC)c3)nc(=S)c3c2CCCC3)cc1
[1]
  EC50: > 195 µM (not active)

## C=CCCC(=O)Nc1nc(C)c(-c2csc(Nc3cc(OC)ccc3OC)n2)s1
[10]
  EC50: 5.52 µM (active)
[11]
  EC50: 12.1 µM (active)
[12]
  EC50: > 120 µM (not active)
[13]
  AC50: 0.71 µM (active)

## CC(C)CCNC(=O)Cn1cc2c(n1)CCCCC2
[1]
  EC50: > 195 µM (not active)

## Cc1ccc(C(OC(=O)c2ccco2)C(=O)NC2CCCCC2)cc1 (centres undefined)
[14]
  AC50: 39.8 µM (inconclusive)

## CC(=O)c1ccc(NC(=O)Nc2ccc([N+](=O)[O-])cc2C)cc1
[3]
  EC50: > 112 µM (not active)
[5]
  EC50: > 112 µM (not active)

## COc1cccc(N2C(=O)N(c3ccccc3)C3CS(=O)(=O)CC32)c1 (centres undefined)
[1]
  EC50: > 195 µM (not active)

## O=C(N/N=C/c1ccc2c(c1)OCO2)/C(=C/c1ccc2c(c1)OCO2)NC(=O)c1ccccc1
[14]
  AC50: 12.6 µM (inconclusive)

## COc1ccc(Oc2ncc3nc(-c4ccc(F)cc4)c(=O)n(Cc4cccs4)c3n2)cc1
[14]
  AC50: 3.16 µM (inconclusive)
[6]
  AC50: 5.01 µM (inconclusive)

## CCCCN(CC)C(=O)Cc1ccccc1OC
[2]
  AC50: 28.2 µM (inconclusive)

## COCCn1c(=O)c(-c2cccc(C#N)c2)nc2cnc(N3CCN(C)CC3)nc21
[14]
  AC50: 3.98 µM (inconclusive)
[6]
  AC50: 15.8 µM (inconclusive)

## COc1c(O)ccc2c1CN1CCc3cc4c(cc3[C@@H]1C2)OCO4
[15]
  AC50: 5.01 µM (inconclusive)
[6]
  AC50: 0.501 µM (inconclusive)
[9]
  AC50: 3.98 µM (inconclusive)

## CCC(Cc1ccccc1)NS(=O)(=O)c1c(C)nc2sccn2c1=O (centres undefined)
[3]
  EC50: > 112 µM (not active)
[5]
  EC50: > 112 µM (not active)

## Cc1noc(COc2ccc(OCc3nc(C)no3)cc2)n1
[14]
  AC50: 39.8 µM (inconclusive)
[9]
  AC50: 17.8 µM (inconclusive)

## Cc1ccc(N2C(=O)/C(=C/N3CCN(C(=O)c4ccco4)CC3)C(=O)NC2=S)cc1C
[14]
  AC50: 20 µM (inconclusive)
[15]
  AC50: 25.1 µM (inconclusive)
[9]
  AC50: 39.8 µM (inconclusive)

## CC1=NN(C(N)=S)C(C)(C)C1
[1]
  EC50: > 195 µM (not active)

## Cc1cc2nc(-c3ccc(NC(=O)c4cccnc4)cc3)oc2cc1C
[3]
  EC50: > 112 µM (not active)
[5]
  EC50: > 112 µM (not active)
[16]
  AC50: 3.87 µM (active)

## CC(NC(=O)C1CCC(C(=O)NC(C)c2ccccc2)CC1)c1ccccc1 (centres undefined)
[16]
  AC50: > 260 µM (inactive)
[13]
  AC50: > 195 µM (inactive)

## Cc1cc(NC(=O)COc2ccc(Cl)cc2Cl)n(-c2ccccc2)n1
[2]
  AC50: 7.08 µM (inconclusive)

## O=C(c1ccco1)N1CCC[C@@]2(CCN(Cc3nccs3)C2)C1
[15]
  AC50: 7.94 µM (inconclusive)
[2]
  AC50: 10 µM (inconclusive)
[9]
  AC50: 39.8 µM (inconclusive)
